Data on 1 compound can be found in patent US20160120848A1, “SPECIFIC CANCER TREATMENT REGIMES WITH GANETESPIB” (SYNTA PHARMACEUTICALS CORP., priority 2013, published 2016).

For series [1], the system named is advanced solid tumor malignancies. Nature of the series: Phase I study of ganetespib monotherapy in advanced solid tumor malignancies. Format: in vivo, patients. Conditions: ganetespib monotherapy 75 or 150 mg/m^2, Days 1 and 15 of 3-week cycle. Here is the method:
A total of 3 (three) cohorts are treated in this study. All patients are hospitalized for the duration of Cycle 1, Days 1 through 21.
In the first cohort (Cohort 1), patients with advanced solid tumor malignancies are treated with 75 mg/m^2 of ganetespib monotherapy. In the second cohort (Cohort 2), patients with advanced solid tumor malignancies are treated with 150 mg/m^2 of ganetespib monotherapy. In the third cohort (Cohort 3), patients with advanced NSCLC are treated with ganetespib (150 mg/m^2) in combination with docetaxel (75 mg/m^2). In the case of intolerability of the third cohort's combination regimen, in a fourth cohort (Cohort 4), patients with advanced NSCLC are treated with ganetespib (150 mg/m^2) in combination with docetaxel (60 mg/m^2).
Each cohort enrolls 3 to 6 patients, depending on toxicity and the inclusion of Cohort 4. A total of 9 patients are enrolled at the recommended combination dose level to better characterize the safety and PK profiles. Each cohort consists of a maximum of 6 evaluable patients, except for the recommended combination dose level, which enrolls a total of 9 patients. Patients who discontinue from the study for reasons other than DLT (dose-limiting toxicity) before completing Cycle 1 are replaced. For all cohorts, patients are hospitalized for the duration of Cycle 1, Days 1 through 21. […]

Series [2] has as its system complex between Hsp90 and mutant p53. Nature of the series: Preclinical study of Hsp90 inhibition by ganetespib in mutant p53 cells. Format: cell-based.
The test system of series [3] is inflammatory breast cancer. Nature of the series: Phase 1b study of ganetespib with doxorubicin, cyclophosphamide and docetaxel. Conditions: combination with doxorubicin. Format: in vivo, patients. The source says: This is an open-label, multicenter, Phase 1b, dose-escalation study in patients with locally advanced and inflammatory breast cancer. The purpose of the study is to test the safety and tolerability of ganetespib in patients with operable breast cancer.
Eligible patients must be treatment naïve with histologic confirmation of breast adenocarcinoma, and a tumor that is readily accessible for sequential biopsy. Before the study, patients undergo a complete physical examination, laboratory investigations, chest x-ray, a mammogram and a breast ultrasonography and other imaging studies (e.g., MRI, PET-CT, or mammogram) to determine the local extent of the disease. Abdominal CT scan is performed to exclude metastatic disease. The methods used to document baseline status must be consistently used throughout the study. Prior to entering the study, HER2 status of the tumor is determined by the local lab.
A pharmacodynamics phase consists of ganetespib single agent given at a dose of 150 mg/m^2 twice for 1 week prior to start of dose escalation phase (approximately on Days −7 and −4). A pre-dose tumor biopsy is obtained within 15+/−3 days prior to initiating treatment with ganetespib. A post-treatment […] is obtained on Day −4, to evaluate the effects of ganetespib on downstream effectors regulating tumor proliferation and survival, as well as potential effects on HIF1-transcriptional activity. […]

Molecules are shown by their SMILES.

Regarding `CC(C)c1cc(-c2n[nH]c(=O)n2-c2ccc3c(ccn3C)c2)c(O)cc1O` [ganetespib], in series [1], the efficacy result is “efficacious” and the safety profile result is on record as “good safety profile”. Moreover, in series [2], the anti-cancer activity result is on record as “potent anti-cancer activity”; the “anti-cancer activity in cells with mutant p53 compared with other cells” value is “substantially stronger in cells with mutant p53”; the “effect on complex between Hsp90 and mutant p53” value is “destroyed the complex between Hsp90 and mutant p53”; the “effect on mutant p53 protein” value is on record as “inducing the degradation of mutant p53”. Moreover, the “sensitization of mutant p53 cancer cells to treatment with chemotherapies” value in series [2] (inhibition of Hsp90) is “strongly sensitize”. Besides, in series [3], the efficacy result is “efficacious” and the safety profile entry was “good safety profile”.
